The numbers were not newly measured in patent US6586473B1, “Topical drug delivery composition and method” (Medicis Pharmaceutical Corporation, priority 1989, dated 2003), which cites them from elsewhere.

The data set has as its system photoaged skin.

Each structure is given as a SMILES string.

As for `CC1=C(/C=C/C(C)=C/C=C/C(C)=C/C(=O)O)C(C)(C)CCC1` [tretinoin, all trans-retinoic acid], the “effects of photoaging (wrinkling, sallowness, roughness, mottled pigmentation)” value (0.1% cream daily for sixteen weeks) is “can improve the effects of photoaging”. For the same compound, where the note is “0.1% tretinoin cream, topical”, the “dermatitis as a result of treatment” value is given as “most patients experience dermatitis” and the “duration of initial dermatitis (xerosis, peeling, subjective irritation)” value was “two weeks to three months”.
